Reference: patent publication US20260356819A1, “OXOISOINDOLINYL-SUBSTITUTED […] DERIVATIVE AND USE THEREOF” (GLUETACS THERAPEUTICS (SHANGHAI) CO., LTD., priority 2023, published 2026)

How the values were obtained:
Type in all cases: cell-based
Settings in all cases: compounds at 50 nM and 500 nM
WEE1 = target: T1, WEE1 (Homo sapiens, UniProt P30291+Q96SW2); assay: Western blot degradation of WEE1 in hPBMCs (24 h)
T1 construct: The supernatant was aspirated as the extracted total cell protein; endogenous in cells; host or cells: human peripheral blood mononuclear cells (hPBMCs)
Method in brief: (§1)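 Read-out is Western blot band grayscale, divided by internal control band and normalised to give percent target protein remaining; degradation rate is 1 minus that value. Cells were human PBMCs exposed to compound at 50 nM and 500 nM for 24 hours.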

IKZF1 = target: T2, IKZF1 (Homo sapiens, UniProt Q13422+Q96SW2); assay: Western blot degradation of IKZF1 in hPBMCs (24 h)
T2 construct: The supernatant was aspirated as the extracted total cell protein; endogenous in cells; host or cells: human peripheral blood mononuclear cells (hPBMCs)
Method in brief: as §1

IKZF2 = target: T3, IKZF2 (Homo sapiens, UniProt Q96SW2+Q9UKS7); assay: Western blot degradation of IKZF2 in hPBMCs (24 h)
T3 construct: The supernatant was aspirated as the extracted total cell protein; endogenous in cells; host or cells: human peripheral blood mononuclear cells (hPBMCs)
Method in brief: as §1

IKZF3 = target: T4, IKZF3 (Homo sapiens, UniProt Q96SW2+Q9UKT9); assay: Western blot degradation of IKZF3 in hPBMCs (24 h)
T4 construct: The supernatant was aspirated as the extracted total cell protein; endogenous in cells; host or cells: human peripheral blood mononuclear cells (hPBMCs)
Method in brief: as §1

CK1α = target: T5, CK1α (Homo sapiens, UniProt P48729+Q96SW2); assay: Western blot degradation of CK1α in hPBMCs (24 h)
T5 construct: The supernatant was aspirated as the extracted total cell protein; endogenous in cells; host or cells: human peripheral blood mononuclear cells (hPBMCs)
Method in brief: as §1

GSPT1 = target: T6, GSPT1 (Homo sapiens, UniProt P15170+Q96SW2); assay: Western blot degradation of GSPT1 in hPBMCs (24 h)
T6 construct: The supernatant was aspirated as the extracted total cell protein; endogenous in cells; host or cells: human peripheral blood mononuclear cells (hPBMCs)
Method in brief: as §1

T1 sequence (P30291 whole entry): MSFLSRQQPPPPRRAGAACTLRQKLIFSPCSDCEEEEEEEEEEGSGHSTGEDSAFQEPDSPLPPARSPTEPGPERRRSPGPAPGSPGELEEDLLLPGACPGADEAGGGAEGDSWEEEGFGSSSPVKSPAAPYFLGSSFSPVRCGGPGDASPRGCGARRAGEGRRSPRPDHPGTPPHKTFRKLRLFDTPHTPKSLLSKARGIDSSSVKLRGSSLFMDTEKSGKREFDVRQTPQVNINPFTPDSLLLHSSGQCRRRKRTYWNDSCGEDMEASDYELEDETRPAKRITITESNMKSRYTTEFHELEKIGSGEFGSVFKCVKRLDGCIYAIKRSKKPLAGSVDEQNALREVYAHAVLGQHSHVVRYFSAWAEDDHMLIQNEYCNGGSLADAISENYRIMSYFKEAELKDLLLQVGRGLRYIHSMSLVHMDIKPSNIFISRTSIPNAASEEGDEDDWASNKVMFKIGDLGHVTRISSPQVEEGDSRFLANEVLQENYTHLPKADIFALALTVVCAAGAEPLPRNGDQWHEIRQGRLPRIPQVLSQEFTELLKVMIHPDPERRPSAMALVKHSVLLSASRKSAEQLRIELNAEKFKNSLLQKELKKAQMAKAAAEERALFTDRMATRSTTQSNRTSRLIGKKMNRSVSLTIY
T1 sequence (Q96SW2 whole entry): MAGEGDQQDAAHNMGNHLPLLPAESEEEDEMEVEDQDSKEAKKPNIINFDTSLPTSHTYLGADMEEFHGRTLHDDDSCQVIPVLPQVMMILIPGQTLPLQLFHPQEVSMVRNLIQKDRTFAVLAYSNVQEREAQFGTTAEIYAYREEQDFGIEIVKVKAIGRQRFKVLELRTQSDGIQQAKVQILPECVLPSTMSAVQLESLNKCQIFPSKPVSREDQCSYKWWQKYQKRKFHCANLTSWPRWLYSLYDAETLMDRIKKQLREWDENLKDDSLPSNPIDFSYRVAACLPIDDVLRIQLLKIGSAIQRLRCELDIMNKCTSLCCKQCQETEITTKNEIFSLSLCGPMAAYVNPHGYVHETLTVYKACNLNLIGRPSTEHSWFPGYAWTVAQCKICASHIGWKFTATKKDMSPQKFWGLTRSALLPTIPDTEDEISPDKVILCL
T1 sequence (Q16531 whole entry partner): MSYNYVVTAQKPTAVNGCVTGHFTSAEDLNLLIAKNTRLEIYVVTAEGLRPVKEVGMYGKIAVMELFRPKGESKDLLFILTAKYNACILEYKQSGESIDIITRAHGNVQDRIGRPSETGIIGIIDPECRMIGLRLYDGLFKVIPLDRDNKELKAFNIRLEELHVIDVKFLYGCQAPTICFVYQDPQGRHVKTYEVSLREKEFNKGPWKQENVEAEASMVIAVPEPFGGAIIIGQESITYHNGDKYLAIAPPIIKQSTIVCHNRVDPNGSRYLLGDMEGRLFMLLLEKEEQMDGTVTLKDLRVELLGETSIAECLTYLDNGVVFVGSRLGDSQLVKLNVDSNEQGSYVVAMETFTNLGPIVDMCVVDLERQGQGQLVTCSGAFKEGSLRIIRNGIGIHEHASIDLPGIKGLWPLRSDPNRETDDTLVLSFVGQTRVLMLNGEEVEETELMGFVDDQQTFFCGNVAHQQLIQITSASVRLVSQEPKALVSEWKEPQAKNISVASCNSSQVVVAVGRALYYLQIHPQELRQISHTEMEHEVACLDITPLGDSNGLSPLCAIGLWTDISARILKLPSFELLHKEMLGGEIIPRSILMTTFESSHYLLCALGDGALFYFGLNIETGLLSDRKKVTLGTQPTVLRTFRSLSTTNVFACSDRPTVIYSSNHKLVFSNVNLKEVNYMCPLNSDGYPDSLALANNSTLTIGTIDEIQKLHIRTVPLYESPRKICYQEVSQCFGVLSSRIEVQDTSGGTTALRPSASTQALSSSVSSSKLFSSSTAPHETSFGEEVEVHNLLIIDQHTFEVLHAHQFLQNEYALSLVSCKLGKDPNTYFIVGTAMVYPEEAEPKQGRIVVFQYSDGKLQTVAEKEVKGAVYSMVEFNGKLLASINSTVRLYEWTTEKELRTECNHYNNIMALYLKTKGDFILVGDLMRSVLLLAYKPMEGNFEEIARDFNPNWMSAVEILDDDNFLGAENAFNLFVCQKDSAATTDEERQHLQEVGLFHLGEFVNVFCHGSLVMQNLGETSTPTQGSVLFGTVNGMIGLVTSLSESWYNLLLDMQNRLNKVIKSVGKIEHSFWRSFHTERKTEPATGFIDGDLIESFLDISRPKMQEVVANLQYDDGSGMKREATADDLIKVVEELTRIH
T4 sequence (Q9UKT9 whole entry): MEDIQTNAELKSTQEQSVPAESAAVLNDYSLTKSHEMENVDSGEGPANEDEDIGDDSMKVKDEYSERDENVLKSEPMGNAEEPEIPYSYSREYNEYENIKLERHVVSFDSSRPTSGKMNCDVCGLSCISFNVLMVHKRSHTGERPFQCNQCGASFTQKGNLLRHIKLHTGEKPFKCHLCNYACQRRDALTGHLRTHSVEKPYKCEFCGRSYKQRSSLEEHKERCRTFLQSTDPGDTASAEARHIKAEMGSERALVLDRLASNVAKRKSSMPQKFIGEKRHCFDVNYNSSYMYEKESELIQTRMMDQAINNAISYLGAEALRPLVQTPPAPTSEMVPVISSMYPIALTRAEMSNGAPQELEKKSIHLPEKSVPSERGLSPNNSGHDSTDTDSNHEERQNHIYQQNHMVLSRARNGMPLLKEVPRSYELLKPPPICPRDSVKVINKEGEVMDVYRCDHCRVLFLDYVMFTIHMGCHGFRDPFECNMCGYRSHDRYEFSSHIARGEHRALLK
T4 sequence (Q96SW2 whole entry): as the sequence (Q96SW2 whole entry) above
T4 sequence (Q16531 whole entry partner): as the sequence (Q16531 whole entry partner) above
T5 sequence (P48729 whole entry): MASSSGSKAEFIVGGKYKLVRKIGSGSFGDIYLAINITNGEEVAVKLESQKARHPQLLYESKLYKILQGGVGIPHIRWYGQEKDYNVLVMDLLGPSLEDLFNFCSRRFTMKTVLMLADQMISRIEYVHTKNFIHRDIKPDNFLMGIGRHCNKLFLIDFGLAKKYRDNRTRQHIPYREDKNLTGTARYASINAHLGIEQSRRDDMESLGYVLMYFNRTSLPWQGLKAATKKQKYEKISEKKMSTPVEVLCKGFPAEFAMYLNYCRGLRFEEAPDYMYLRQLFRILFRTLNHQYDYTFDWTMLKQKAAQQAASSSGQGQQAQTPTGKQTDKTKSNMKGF
T5 sequence (Q96SW2 whole entry): as the sequence (Q96SW2 whole entry) above
T5 sequence (Q16531 whole entry partner): as the sequence (Q16531 whole entry partner) above
T2 sequence (Q13422 whole entry): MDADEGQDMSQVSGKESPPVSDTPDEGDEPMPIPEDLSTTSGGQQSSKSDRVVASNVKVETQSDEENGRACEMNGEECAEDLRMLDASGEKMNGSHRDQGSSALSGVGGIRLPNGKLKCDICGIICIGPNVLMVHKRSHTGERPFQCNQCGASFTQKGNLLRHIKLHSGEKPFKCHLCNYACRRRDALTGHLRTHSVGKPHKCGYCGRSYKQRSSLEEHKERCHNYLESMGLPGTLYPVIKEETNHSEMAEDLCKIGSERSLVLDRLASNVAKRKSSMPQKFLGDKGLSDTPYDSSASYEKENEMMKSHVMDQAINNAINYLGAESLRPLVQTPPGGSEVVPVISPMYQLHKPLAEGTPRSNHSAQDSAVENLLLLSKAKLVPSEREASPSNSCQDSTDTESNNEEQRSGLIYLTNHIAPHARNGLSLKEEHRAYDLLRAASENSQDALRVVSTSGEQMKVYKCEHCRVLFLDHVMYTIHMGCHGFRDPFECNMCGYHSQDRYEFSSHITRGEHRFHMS
T2 sequence (Q96SW2 whole entry): as the sequence (Q96SW2 whole entry) above
T2 sequence (Q16531 whole entry partner): as the sequence (Q16531 whole entry partner) above
T6 sequence (P15170 whole entry): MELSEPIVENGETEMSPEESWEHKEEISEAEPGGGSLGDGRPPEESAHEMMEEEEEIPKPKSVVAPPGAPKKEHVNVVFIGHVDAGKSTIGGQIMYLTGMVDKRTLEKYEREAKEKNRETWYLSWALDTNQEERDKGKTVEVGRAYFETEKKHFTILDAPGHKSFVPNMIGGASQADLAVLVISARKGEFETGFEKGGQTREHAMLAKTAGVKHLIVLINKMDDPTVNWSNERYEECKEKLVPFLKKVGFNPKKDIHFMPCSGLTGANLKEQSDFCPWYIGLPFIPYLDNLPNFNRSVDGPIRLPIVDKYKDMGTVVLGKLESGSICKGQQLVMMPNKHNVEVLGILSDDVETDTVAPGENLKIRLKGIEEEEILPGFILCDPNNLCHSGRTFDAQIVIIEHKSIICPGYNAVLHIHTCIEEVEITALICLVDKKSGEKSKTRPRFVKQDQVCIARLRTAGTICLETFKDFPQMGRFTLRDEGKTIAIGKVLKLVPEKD
T6 sequence (Q96SW2 whole entry): as the sequence (Q96SW2 whole entry) above
T6 sequence (Q16531 whole entry partner): as the sequence (Q16531 whole entry partner) above

Row | Compound | WEE1 substrate protein remaining % (WEE1) | IKZF1 substrate protein remaining % (IKZF1) | IKZF2 substrate protein remaining % (IKZF2) | IKZF3 substrate protein remaining % (IKZF3) | CK1α substrate protein remaining % (CK1α) | GSPT1 substrate protein remaining % (GSPT1)
1 | CC1(C)CCC(CN2CC3CC2CN3Cc2ccc3c(c2)CN(N2CCC(=O)NC2=O)C3=O)=C(c2ccc(Cl)cc2)C1 (stereo not drawn) [GT-07329, 1-(5-((5-((4′-chloro-5,5-dimethyl-3,4,5,6-tetrahydro-[1,1′-biphenyl]-2-yl)methyl)-2,5-diazabicyclo[2.2.1]heptan-2-yl)methyl)-1-oxoisoindolin-2-yl)dihydropyrimidine-2,4(1H,3H)-dione] | A (0% ≤ substrate protein remaining % ≤80%) | B (80%< substrate protein remaining % ≤100%) | B (80%< substrate protein remaining % ≤100%) | B (80%< substrate protein remaining % ≤100%) | B (80%< substrate protein remaining % ≤100%) | A (0% ≤ substrate protein remaining % ≤80%)
2 | CC1(C)CCC(CN2CC3CCC(C2)N3Cc2ccc3c(c2)CN(N2CCC(=O)NC2=O)C3=O)=C(c2ccc(Cl)cc2)C1 [GT-07330, 1-(5-((3-((4′-chloro-5,5-dimethyl-3,4,5,6-tetrahydro-[1,1′-biphenyl]-2-yl)methyl)-3,8-diazabicyclo[3.2.1]octan-8-yl)methyl)-1-oxoisoindolin-2-yl)dihydropyrimidine-2,4(1H,3H)-dione] | A (0% ≤ substrate protein remaining % ≤80%) | A (0% ≤ substrate protein remaining % ≤80%) | A (0% ≤ substrate protein remaining % ≤80%) | A (0% ≤ substrate protein remaining % ≤80%) | B (80%< substrate protein remaining % ≤100%) | A (0% ≤ substrate protein remaining % ≤80%)
3 | CC1(C)CCC(CN2CC3CCC2CN3Cc2ccc3c(c2)CN(N2CCC(=O)NC2=O)C3=O)=C(c2ccc(Cl)cc2)C1 (stereo not drawn) [GT-07331, 1-(5-((5-((4′-chloro-5,5-dimethyl-3,4,5,6-tetrahydro-[1,1′-biphenyl]-2-yl)methyl)-2,5-diazabicyclo[2.2.2]octan-2-yl)methyl)-1-oxoisoindolin-2-yl)dihydropyrimidine-2,4(1H,3H)-dione] | A (0% ≤ substrate protein remaining % ≤80%) | A (0% ≤ substrate protein remaining % ≤80%) | B (80%< substrate protein remaining % ≤100%) | A (0% ≤ substrate protein remaining % ≤80%) | A (0% ≤ substrate protein remaining % ≤80%) | A (0% ≤ substrate protein remaining % ≤80%)
4 | CC1(C)CC(c2ccc(Cl)cc2)=C(CN2CCN(Cc3ccc4c(c3)CN(N3CCC(=O)NC3=O)C4=O)CC2)CO1 [GT-07332, 1-(5-((4-((4-(4-chlorophenyl)-6,6-dimethyl-5,6-dihydro-2H-pyran-3-yl)methyl)piperazin-1-yl)methyl)-1-oxoisoindolin-2-yl)dihydropyrimidine-2,4(1H,3H)-dione] | A (0% ≤ substrate protein remaining % ≤80%) | A (0% ≤ substrate protein remaining % ≤80%) | B (80%< substrate protein remaining % ≤100%) | A (0% ≤ substrate protein remaining % ≤80%) | B (80%< substrate protein remaining % ≤100%) | A (0% ≤ substrate protein remaining % ≤80%)
5 | CC1(C)CCC(CN2CC3CCC(C2)N3Cc2ccc3c(c2)C(=O)N(N2CCC(=O)NC2=O)C3=O)=C(c2ccc(Cl)cc2)C1 [GT-07333, 5-((3-((4′-chloro-5,5-dimethyl-3,4,5,6-tetrahydro-[1,1′-biphenyl]-2-yl)methyl)-3,8-diazabicyclo[3.2.1]octan-8-yl)methyl)-2-(2,4-dioxotetrahydropyrimidin-1(2H)-yl)isoindoline-1,3-dione] | B (80%< substrate protein remaining % ≤100%) | B (80%< substrate protein remaining % ≤100%) | B (80%< substrate protein remaining % ≤100%) | B (80%< substrate protein remaining % ≤100%) | B (80%< substrate protein remaining % ≤100%) | A (0% ≤ substrate protein remaining % ≤80%)
6 | CC1(C)CCC(CN2CC3CC2CN3Cc2ccc3c(c2)C(=O)N(N2CCC(=O)NC2=O)C3=O)=C(c2ccc(Cl)cc2)C1 (stereo not drawn) [GT-07334, 5-((5-((4′-chloro-5,5-dimethyl-3,4,5,6-tetrahydro-[1,1′-biphenyl]-2-yl)methyl)-2,5-diazabicyclo[2.2.1]heptan-2-yl)methyl)-2-(2,4-dioxotetrahydropyrimidin-1(2H)-yl)isoindoline-1,3-dione] | A (0% ≤ substrate protein remaining % ≤80%) | B (80%< substrate protein remaining % ≤100%) | B (80%< substrate protein remaining % ≤100%) | B (80%< substrate protein remaining % ≤100%) | A (0% ≤ substrate protein remaining % ≤80%) | B (80%< substrate protein remaining % ≤100%)
7 | Cc1cscc1C1CCN(Cc2ccc3c(c2)CN(N2CCC(=O)NC2=O)C3=O)CC1 [GT-07372, 1-(5-((4-(4-methylthiophen-3-yl)piperidin-1-yl)methyl)-1-oxoisoindolin-2-yl)dihydropyrimidine-2,4(1H,3H)-dione] | B (80%< substrate protein remaining % ≤100%) | B (80%< substrate protein remaining % ≤100%) | B (80%< substrate protein remaining % ≤100%) | A (0% ≤ substrate protein remaining % ≤80%) | B (80%< substrate protein remaining % ≤100%) | A (0% ≤ substrate protein remaining % ≤80%)
8 | Cc1cc(C2CCN(Cc3ccc4c(c3)CN(N3CCC(=O)NC3=O)C4=O)CC2)cs1 [GT-07373, 1-(5-((4-(5-methylthiophen-3-yl)piperidin-1-yl)methyl)-1-oxoisoindolin-2-yl)dihydropyrimidine-2,4(1H,3H)-dione] | B (80%< substrate protein remaining % ≤100%) | B (80%< substrate protein remaining % ≤100%) | B (80%< substrate protein remaining % ≤100%) | A (0% ≤ substrate protein remaining % ≤80%) | B (80%< substrate protein remaining % ≤100%) | A (0% ≤ substrate protein remaining % ≤80%)
9 | O=C1CCN(N2Cc3cc(CN4CCC(c5ccco5)CC4)ccc3C2=O)C(=O)N1 [GT-07374, 1-(5-((4-(furan-2-y1)piperidin-1-yl)methyl)-1-oxoisoindolin-2-yl)dihydropyrimidine-2,4(1H,3H)-dione] | B (80%< substrate protein remaining % ≤100%) | B (80%< substrate protein remaining % ≤100%) | B (80%< substrate protein remaining % ≤100%) | B (80%< substrate protein remaining % ≤100%) | A (0% ≤ substrate protein remaining % ≤80%) | A (0% ≤ substrate protein remaining % ≤80%)
